# Test results as given in article PMC13308190, “Endothelial progenitor cell susceptibility to DNA damaging and DDR-modulating compounds determines endothelial differentiation accuracy” (Stem Cell Research & Therapy, 2026).
# Tests used:
# Assay type in all cases: cell-based, mouse
# [1] = test system: EC d4 (endothelial progenitor cells); assay: AlamarBlue cell viability; conditions: 48 h treatment
# Experimental: (§1) Drug-induced cytotoxicity was monitored by analyzing cell viability using the AlamarBlue assay, which measures the reduction of the non-fluorescent dye resazurin (Sigma [Steinheim, Germany]) to fluorescent resorufin by living (i.e. metabolically active) cells. Fluorescence was measured in quadruplicates (excitation: 535 nm, emission: 590 nm (Tecan infinite 200, Tecan, Männedorf, Switzerland)). Relative cell viability of the untreated control was set to 100%.
# [2] = test system: mESC; assay: AlamarBlue cell viability
# Experimental: as §1
# [3] = test system: EC d4 (endothelial progenitor cells); assay: Western blot protein expression (densitometry); conditions: EC d4 48 h; for H3ac protein / H4ac protein / aTubac (acetylated α-Tubulin) protein: Fig 1D; for CHK1 protein / RAD51 protein / gH2AX protein / p-CHK2 protein / p-KAP1 protein / p-RPA32 protein / p-p53 protein: Fig 5D; for AMPKa protein / GSK3b protein / p-p70SK protein: Fig 6E
# Method in brief: (§2)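 Whole-cell RIPA extracts (probe sonication) quantified by DC assay; 20 µg protein resolved by SDS-PAGE, blotted to nitrocellulose. Blocked 1 h RT in 5% milk or BSA/TBST; primary antibodies 1:500–5000 overnight 4 °C, peroxidase secondary 1:2000 2 h RT. Chemiluminescent bands imaged, levels by densitometry.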
# [4] = test system: mESC; assay: Western blot protein expression (densitometry); conditions: mESC 24 h; for H3ac protein / H4ac protein / aTubac (acetylated α-Tubulin) protein: Fig 1D; for AMPKa protein / GSK3b protein / p-p70SK protein: Fig 6E
# Method in brief: as §2
# [5] = test system: EC d4; assay: ZO1 tight junction immunofluorescence; conditions: EC d4 treated 48 h
# [6] = test system: EC d4; assay: Nuclear γH2AX / 53BP1 foci (DSB); conditions: EC d4 48 h, equitoxic concentrations
# Experimental: (§3) DNA double-strand breaks were monitored by immunocytochemical detection of nuclear γH2AX and 53BP1 foci. Cells were fixed with 3.7% formaldehyde/PBS (15 min, RT) and permeabilized (0.3% TritonX/PBS; 15 min, RT). […] Cell suspension was mixed with 0.5% low melting point agarose and applied onto glass slides coated with 1.5% agarose. After lysis in alkaline buffer (pH 10, 1 h, 4 °C, protected from light) and DNA denaturation in precooled electrophoresis buffer (pH > 13, 25 min, 4 °C, protected from light) electrophoresis was performed (300 mA, 25 V, 4 °C, 25 min).
# [7] = test system: mESC; assay: Nuclear γH2AX / 53BP1 foci (DSB); conditions: mESC 24 h, equitoxic concentrations
# Experimental: as §3
# [8] = test system: EC d4; assay: VE-cadherin cell-cell junction immunostaining; conditions: EC d4 treated 48 h
# [9] = test system: EC d6; assay: ZO1 tight junction immunofluorescence; conditions: analysed 2 days later
# [10] = test system: EC d6; assay: Mitochondrial membrane potential (TMRM-MitoTracker Green); conditions: EC d6 treated 24 h
# Experimental: Mitochondrial membrane potential (ΔΨm) was analyzed by live-cell imaging using TMRM-MitoTracker Green co-staining. Cells were seeded and differentiated on Poly-D-Lysine-fibronectine-coated live-imaging dishes. For staining, cells were incubated with 200nM MitoTracker Green (Invitrogen) and 50 nM TMRM (Invitrogen) in DMEM (30 min, 37 °C, 5% CO2). After washing with PBS, live-cell microscopy was performed using a spinning disc confocal microscope (PerkinElmer) equipped with a 60x oil-immersion objective (N.A = 1.49) and a Hamamatsu C9100 camera (1000 × 1000 pixel) (excitation (MitoTracker Green): 488 nm, excitation (TMRM): 561 nm). The cells were kept at 37 °C in OptiMEM supplemented with 10 mM HEPES during imaging. The images were obtained at emission wavelength of 527 nm (W55) and 615 nm (W70) for 488 nm and 561 nm excitation, respectively.
# [11] = concentration 1 (Dox 1/B02 1/EST 1)
# [12] = concentration 2 (Dox 2/B02 2/EST 2)
# [13] = Fig 5D, concentration 1 (Dox 1/B02 1/EST 1)
# [14] = Fig 5D, concentration 2 (Dox 2/B02 2/EST 2)
smiles,measurement,setting,value
"COc1cccc2c1C(=O)c1c(O)c3c(c(O)c1C2=O)C[C@@](O)(C(=O)CO)C[C@@H]3O[C@H]1C[C@H](N)[C@H](O)[C@H](C)O1 [Dox, doxorubicin]",susceptibility (cell viability) of EC d4 as compared to both mESC and EC d6,[1],significant higher
same,IC50,"[2]; Mus musculus, 24 h treatment",170 nM
same,IC50,"[2]; Mus musculus, 72 h treatment",9 nM
same,H3ac protein,[3],0.0 Fold of mESC
same,H4ac protein,[3],0.0 Fold of mESC
same,aTubac (acetylated α-Tubulin) protein,[3],0.3 Fold of mESC
same,CHK1 protein,[3]; [11],2.1 Fold of mESC
same,RAD51 protein,[3]; [11],0.1 Fold of mESC
same,gH2AX protein,[3]; [11],142.6 Fold of mESC
same,p-CHK2 protein,[3]; [11],0.7 Fold of mESC
same,p-KAP1 protein,[3]; [11],0.0 Fold of mESC
same,p-RPA32 protein,[3]; [11],0.5 Fold of mESC
same,p-p53 protein,[3]; [11],2.0 Fold of mESC
same,CHK1 protein,[3]; [12],0.2 Fold of mESC
same,RAD51 protein,[3]; [12],< 0.1 Fold of mESC
same,gH2AX protein,[3]; [12],44.9 Fold of mESC
same,p-CHK2 protein,[3]; [12],0.2 Fold of mESC
same,p-KAP1 protein,[3]; [12],0.0 Fold of mESC
same,p-RPA32 protein,[3]; [12],0.1 Fold of mESC
same,p-p53 protein,[3]; [12],2.6 Fold of mESC
same,AMPKa protein,[3],0.7 Fold of mESC
same,GSK3b protein,[3],5.7 Fold of mESC
same,p-p70SK protein,[3],0.5 Fold of mESC
same,H3ac protein,[4],0.3 Fold of mESC
same,H4ac protein,[4],0.0 Fold of mESC
same,aTubac (acetylated α-Tubulin) protein,[4],0.5 Fold of mESC
same,CHK1 protein,"[4]; Fig 4H, Dox 2",1.3 Fold of mESC
same,p-ATR protein,"[4]; Fig 4H, Dox 2",2.7 Fold of mESC
same,p-CHK1 protein,"[4]; Fig 4H, Dox 2",4.4 Fold of mESC
same,p-RPA32 protein,"[4]; Fig 4H, Dox 2",1.5 Fold of mESC
same,p-p53 protein,"[4]; Fig 4H, Dox 2",6.5 Fold of mESC
same,CHK1 protein,"[4]; Fig 4H, Eto, Dox 1, B02, EST",1.0 Fold of mESC
same,p-ATR protein,"[4]; Fig 4H, Eto, Dox 1, B02, EST",1.9 Fold of mESC
same,p-CHK1 protein,"[4]; Fig 4H, Eto, Dox 1, B02, EST",2.4 Fold of mESC
same,p-RPA32 protein,"[4]; Fig 4H, Eto, Dox 1, B02, EST",1.1 Fold of mESC
same,p-p53 protein,"[4]; Fig 4H, Eto, Dox 1, B02, EST",6.4 Fold of mESC
same,CHK1 protein,[4]; [13],1.7 Fold of mESC
same,RAD51 protein,[4]; [13],1.2 Fold of mESC
same,gH2AX protein,[4]; [13],69.7 Fold of mESC
same,p-CHK2 protein,[4]; [13],1.1 Fold of mESC
same,p-KAP1 protein,[4]; [13],31.2 Fold of mESC
same,p-RPA32 protein,[4]; [13],1.4 Fold of mESC
same,p-p53 protein,[4]; [13],4.2 Fold of mESC
same,CHK1 protein,[4]; [14],1.8 Fold of mESC
same,RAD51 protein,[4]; [14],0.9 Fold of mESC
same,gH2AX protein,[4]; [14],174.9 Fold of mESC
same,p-CHK2 protein,[4]; [14],1.5 Fold of mESC
same,p-KAP1 protein,[4]; [14],59.9 Fold of mESC
same,p-RPA32 protein,[4]; [14],1.8 Fold of mESC
same,p-p53 protein,[4]; [14],5.7 Fold of mESC
same,AMPKa protein,[4],0.2 Fold of mESC
same,GSK3b protein,[4],0.8 Fold of mESC
same,p-p70SK protein,[4],1.1 Fold of mESC
same,ZO1 containing tight junctions in EC d6 differentiated from treated EC d4,[5],fragmented / interrupted ZO1 containing tight junctions
same,DSB numbers (γH2AX / 53BP1 foci),[6],clear increase
same,nuclear γH2AX foci,[7],significant increase
same,VE-cadherin cell-cell junctions in EC d6 differentiated from treated EC d4,[8],disturbed
same,ZO1 assembly in treated EC d6,[9],clearly visible gaps
same,mitochondrial membrane potential,[10],significantly reduced
O=c1c2ccccc2nc(/C=C/c2cccnc2)n1Cc1ccccc1 [B02],susceptibility (cell viability) of EC d4 as compared to both mESC and EC d6,[1],not observed
same,IC50,[2]; 24–72 h treatment,~20000 nM
same,H3ac protein,[3],0.0 Fold of mESC
same,H4ac protein,[3],0.0 Fold of mESC
same,aTubac (acetylated α-Tubulin) protein,[3],0.6 Fold of mESC
same,CHK1 protein,[3]; [11],0.4 Fold of mESC
same,RAD51 protein,[3]; [11],0.7 Fold of mESC
same,gH2AX protein,[3]; [11],1.8 Fold of mESC
same,p-CHK2 protein,[3]; [11],0.2 Fold of mESC
same,p-KAP1 protein,[3]; [11],0.0 Fold of mESC
same,p-RPA32 protein,[3]; [11],0.3 Fold of mESC
same,p-p53 protein,[3]; [11],0.6 Fold of mESC
same,CHK1 protein,[3]; [12],0.2 Fold of mESC
same,RAD51 protein,[3]; [12],0.3 Fold of mESC
same,gH2AX protein,[3]; [12],0.0 Fold of mESC
same,p-CHK2 protein,[3]; [12],< 0.1 Fold of mESC
same,p-KAP1 protein,[3]; [12],0.0 Fold of mESC
same,p-RPA32 protein,[3]; [12],0.4 Fold of mESC
same,p-p53 protein,[3]; [12],0.3 Fold of mESC
same,AMPKa protein,[3],0.1 Fold of mESC
same,GSK3b protein,[3],1.9 Fold of mESC
same,p-p70SK protein,[3],1.4 Fold of mESC
same,H3ac protein,[4],1.8 Fold of mESC
same,H4ac protein,[4],232.9 Fold of mESC
same,aTubac (acetylated α-Tubulin) protein,[4],0.5 Fold of mESC
same,CHK1 protein,"[4]; Fig 4H, Eto, Dox 1, B02, EST",1.4 Fold of mESC
same,p-ATR protein,"[4]; Fig 4H, Eto, Dox 1, B02, EST",2.7 Fold of mESC
same,p-CHK1 protein,"[4]; Fig 4H, Eto, Dox 1, B02, EST",0.8 Fold of mESC
same,p-RPA32 protein,"[4]; Fig 4H, Eto, Dox 1, B02, EST",2.0 Fold of mESC
same,p-p53 protein,"[4]; Fig 4H, Eto, Dox 1, B02, EST",1.2 Fold of mESC
same,CHK1 protein,[4]; [13],0.8 Fold of mESC
same,RAD51 protein,[4]; [13],1.9 Fold of mESC
same,gH2AX protein,[4]; [13],< 0.1 Fold of mESC
same,p-CHK2 protein,[4]; [13],0.9 Fold of mESC
same,p-KAP1 protein,[4]; [13],1.30 Fold of mESC
same,p-RPA32 protein,[4]; [13],0.8 Fold of mESC
same,p-p53 protein,[4]; [13],0.9 Fold of mESC
same,CHK1 protein,[4]; [14],1.0 Fold of mESC
same,RAD51 protein,[4]; [14],2.3 Fold of mESC
same,gH2AX protein,[4]; [14],0.5 Fold of mESC
same,p-CHK2 protein,[4]; [14],1.1 Fold of mESC
same,p-KAP1 protein,[4]; [14],1.26 Fold of mESC
same,p-RPA32 protein,[4]; [14],1.3 Fold of mESC
same,p-p53 protein,[4]; [14],1.2 Fold of mESC
same,AMPKa protein,[4],0.2 Fold of mESC
same,GSK3b protein,[4],1.3 Fold of mESC
same,p-p70SK protein,[4],1.2 Fold of mESC
same,ZO1 containing tight junctions in EC d6 differentiated from treated EC d4,[5],did not affect
same,DSB numbers (γH2AX / 53BP1 foci),[6],clear increase
same,nuclear γH2AX foci,[7],significant increase
same,VE-cadherin cell-cell junctions in EC d6 differentiated from treated EC d4,[8],did not trigger defects
same,ZO1 assembly in treated EC d6,[9],clearly visible gaps
same,mitochondrial membrane potential,[10],significantly reduced
